Literature values as cited in paper PMC11291603, “Histidine-based ionizable cationic surfactants: novel biodegradable agents for hydrophilic macromolecular drug delivery” (Drug Delivery and Translational Research, 2024).

How the values were obtained:
[1] = as specified by the manufacturer
[2] = literature value, no reference given

Aqueous solubility [1]	pKa of the imidazolium ring [2]	Structure (SMILES)
1 µg/mL	–	CCCCCCCCC(CO)CCCCCC (centres unmarked) [2-hexyl-1-decanol]
–	6.0-6.1	N[C@@H](Cc1c[nH]cn1)C(=O)O [histidine]
